Here are results for 20 compounds from patent publication US20230416227A1, “PLASMA KALLIKREIN INHIBITORS” (Merck Sharp & Dohme LLC, priority 2020, published 2023).

Experiment [1] deals with T1, Human plasma kallikrein (Homo sapiens, UniProt P03952).
T1 construct: yields a heavy chain (371 amino acids) and a light chain (248 amino acids); purchased Enzyme Research Laboratories
Nature of the experiment: Plasma Kallikrein Assay. The class given is biochemical. As to conditions: purified Human plasma kallikrein 0.5 nM, substrate Acetyl-K-P-R-AFC, pH 7.4.

Experiment [2] deals with human factor XIa (Homo sapiens, UniProt P03951). Kind of experiment: Factor XIa Assay. The class given is biochemical. Conditions: human factor XIa 0.04 nM, substrate GPR-AFC, 30 min pre-incubation at 25° C., pH 7.4; read-out: FXIa IC50. Here is the method:
The effectiveness of a compound of the present invention as an inhibitor of Coagulation factor XIa can be determined using a relevant purified serine protease, and an appropriate synthetic substrate. The rate of hydrolysis of the chromogenic or fluorogenic substrate by the relevant serine protease was measured both in the absence and presence of compounds of the present invention. Assays were conducted at rt or at 37° C. […] A decrease in the rate of fluorescence change in the presence of inhibitor is indicative of enzyme inhibition. Such methods are known to one skilled in the art. The results of this assay are expressed as the half-maximal inhibitory concentrations (IC50), or the inhibitory constant, Ki.
Compounds were pre-incubated for 30 min at 25° C. with human (0.04 nM) factor XIa in 50 mM HEPES buffer with 150 mM sodium chloride, 5 mM calcium chloride, 0.1% PEG 8000, pH 7.4. factor XIa enzymatic activity was determined by addition of the substrate glycine-proline-arginine-7-amido-4-trifluoromethylcoumarin (GPR-AFC) and measurement of the fluorescence at 400/505 nm after a 60 min incubation at 25° C. The % inhibition for each data point was calculated from the data and analyzed using the log (inhibitor) vs. response four parameters equation to determine the half-maximal inhibitory concentrations (IC50). The IC50 were converted to equilibrium inhibitory constants (Ki) using the Cheng-Prusoff equation.

T1 sequence (P03952 391-638 limits assumed): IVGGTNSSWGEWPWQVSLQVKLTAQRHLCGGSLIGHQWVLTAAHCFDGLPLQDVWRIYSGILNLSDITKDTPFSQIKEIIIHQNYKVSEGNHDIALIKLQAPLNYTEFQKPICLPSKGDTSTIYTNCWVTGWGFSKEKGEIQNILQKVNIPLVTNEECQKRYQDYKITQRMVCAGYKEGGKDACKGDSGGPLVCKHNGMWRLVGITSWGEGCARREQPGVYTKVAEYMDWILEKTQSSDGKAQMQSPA
T1 sequence (P03952 20-390 partner limits assumed): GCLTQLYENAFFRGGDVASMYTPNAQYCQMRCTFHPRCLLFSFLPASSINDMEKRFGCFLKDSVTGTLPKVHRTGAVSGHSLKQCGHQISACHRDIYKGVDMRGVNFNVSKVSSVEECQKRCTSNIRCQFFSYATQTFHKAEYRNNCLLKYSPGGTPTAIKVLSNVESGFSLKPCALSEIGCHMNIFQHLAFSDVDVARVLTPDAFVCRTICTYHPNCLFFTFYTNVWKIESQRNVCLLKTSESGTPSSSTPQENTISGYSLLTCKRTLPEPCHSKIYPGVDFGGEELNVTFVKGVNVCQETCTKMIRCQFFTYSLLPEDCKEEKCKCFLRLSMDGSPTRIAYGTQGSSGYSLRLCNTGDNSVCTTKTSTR
Sequence of human factor XIa (P03951 388-625 limits assumed): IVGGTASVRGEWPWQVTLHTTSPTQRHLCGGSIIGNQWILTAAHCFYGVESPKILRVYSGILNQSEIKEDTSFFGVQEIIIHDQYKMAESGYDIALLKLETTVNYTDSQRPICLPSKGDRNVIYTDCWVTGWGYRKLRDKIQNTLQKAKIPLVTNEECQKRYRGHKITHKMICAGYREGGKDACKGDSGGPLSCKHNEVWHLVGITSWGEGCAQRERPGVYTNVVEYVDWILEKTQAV
Sequence of human factor XIa (P03951 19-387 partner limits assumed): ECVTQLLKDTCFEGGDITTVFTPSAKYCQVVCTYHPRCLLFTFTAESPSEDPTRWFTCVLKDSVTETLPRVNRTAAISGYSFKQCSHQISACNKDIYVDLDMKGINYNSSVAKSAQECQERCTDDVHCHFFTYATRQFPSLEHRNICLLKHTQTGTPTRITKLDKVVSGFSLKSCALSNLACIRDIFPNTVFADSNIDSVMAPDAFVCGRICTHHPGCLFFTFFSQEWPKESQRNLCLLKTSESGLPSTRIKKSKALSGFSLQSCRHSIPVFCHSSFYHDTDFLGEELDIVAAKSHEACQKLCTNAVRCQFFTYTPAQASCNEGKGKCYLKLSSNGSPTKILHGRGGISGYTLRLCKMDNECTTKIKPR

As usually defined, the IC50 is the concentration that inhibits the measured activity by half. `CC(c1cnc(N2C[C@H]3C[C@H]3[C@H]2C(N)=O)nc1)n1cc(NC(=O)c2cncc(-c3c(C(F)F)ccc(Cl)c3F)n2)cn1` (relative stereo) [Example 195, (cis)-3-(5-(1-(4-(6-(3-Chloro-6-(difluoromethyl)-2-fluorophenyl)pyrazine-2-carboxamido)-1H-pyrazol-1-yl)ethyl)pyrimidin-2-yl)-3-azabicyclo[3.1.0]hexane-2-carboxamide]: the IC50 in experiment [1] came out at 11 nM; in experiment [2], 8800 nM.
For `C[C@H](c1cnc(N2CCC2)nc1)n1cc(NC(=O)c2cncc(-c3c(C(F)F)ccc(Cl)c3F)n2)cn1` (single isomer, unassigned) [Example 4] the same measures were 23.1 nM and 1320 nM.
As to `O=C(Nc1cnn([C@@H](CO)c2cnc(N3CCC3)nc2)c1)c1cncc(-c2c(C(F)F)ccc(Cl)c2F)n1` (single isomer, unassigned) [Example 6], the half-maximal inhibitory concentration (IC50) in experiment [1] was 22.9 nM; in experiment [2], 1690 nM.
In the case of `O=C(Nc1cnn([C@H](CO)c2cnc(N3CCC3)nc2)c1)c1cncc(-c2c(C(F)F)ccc(Cl)c2F)n1` (single isomer, unassigned) [Example 7], the IC50 was 52.1 nM in experiment [1] and 1420 nM in experiment [2].
As to `Cc1ncc(-c2c(C(F)F)ccc(Cl)c2F)nc1C(=O)Nc1cnn(C(C)c2cnc(N3CCC3)nc2)c1` (single isomer, unassigned) [Example 27, (S or R)-N-(1-(1-(2-(azetidin-1-yl)pyrimidin-5-yl)ethyl)-1H-pyrazol-4-yl)-6-(3-chloro-6-(difluoromethyl)-2-fluorophenyl)-3-methylpyrazine-2-carboxamide], the IC50 in experiment [1] is 3.8 nM; in experiment [2], 869 nM.
The corresponding values for `Cc1ncc(-c2c(C(F)F)ccc(Cl)c2F)nc1C(=O)Nc1cnn(C(C)c2cnc(N3CCC3)nc2)c1` (single isomer, unassigned) [Example 28, (R or S)-N-(1-(1-(2-(azetidin-1-yl)pyrimidin-5-yl)ethyl)-1H-pyrazol-4-yl)-6-(3-chloro-6-(difluoromethyl)-2-fluorophenyl)-3-methylpyrazine-2-carboxamide] are 11.9 nM and 927 nM.
Turning to `CC(c1cnc(N2CCC2)cn1)n1cc(NC(=O)c2cncc(-c3c(C(F)F)ccc(Cl)c3F)n2)cn1` (single isomer, unassigned) [Example 29, (S or R)-N-(1-(1-(5-(azetidin-1-yl)pyrazin-2-yl)ethyl)-1H-pyrazol-4-yl)-6-(3-chloro-6-(difluoromethyl)-2-fluorophenyl)pyrazine-2-carboxamide], the IC50 was 20.7 nM in experiment [1] and 1770 nM in experiment [2].
Turning to `CC(c1cnc(N2CCC2)cn1)n1cc(NC(=O)c2cncc(-c3c(C(F)F)ccc(Cl)c3F)n2)cn1` (single isomer, unassigned) [Example 30, (R or S)-N-(1-(1-(5-(azetidin-1-yl)pyrazin-2-yl)ethyl)-1H-pyrazol-4-yl)-6-(3-chloro-6-(difluoromethyl)-2-fluorophenyl)pyrazine-2-carboxamide], the figures for the half-inhibitory concentration (IC50) in experiment [1] and in experiment [2] were 7.8 nM and 2170 nM, respectively.
The corresponding values for `CC(c1cnc(N2CC3CC3C2)nc1)n1cc(NC(=O)c2cncc(-c3c(C(F)F)ccc(Cl)c3F)n2)cn1` (single isomer, unassigned) [Example 31, N-(1-((1S or 1R)-1-(2-(3-azabicyclo[3.1.0]hexan-3-yl)pyrimidin-5-yl)ethyl)-1H-pyrazol-4-yl)-6-(3-chloro-6-(difluoromethyl)-2-fluorophenyl)pyrazine-2-carboxamide] are 27 nM and 2720 nM.
`CC(c1cnc(N2CC3CC3C2)nc1)n1cc(NC(=O)c2cncc(-c3c(C(F)F)ccc(Cl)c3F)n2)cn1` (single isomer, unassigned) [Example 32, N-(1-((1R or 1S)-1-(2-(3-azabicyclo[3.1.0]hexan-3-yl)pyrimidin-5-yl)ethyl)-1H-pyrazol-4-yl)-6-(3-chloro-6-(difluoromethyl)-2-fluorophenyl)pyrazine-2-carboxamide]: the half-maximal inhibitory concentration (IC50) worked out at 8.1 nM in experiment [1] and 1520 nM in experiment [2].
As to `CC(c1cnc(N2CC3CC3C2)nc1)n1cc(NC(=O)c2nc(-c3c(C(F)F)ccc(Cl)c3F)cnc2N(C)C)cn1` (single isomer, unassigned) [Example 34, N-(1-((1R or 1S)-1-(2-(3-azabicyclo[3.1.0]hexan-3-yl)pyrimidin-5-yl)ethyl)-1H-pyrazol-4-yl)-6-(3-chloro-6-(difluoromethyl)-2-fluorophenyl)-3-(dimethylamino)pyrazine-2-carboxamide], the IC50 in experiment [1] was found to be 28.1 nM; in experiment [2] it was 3330 nM.
The corresponding values for `O=C(Nc1cnn(C(c2cnc(N3CCC3)nc2)C(F)F)c1)c1cncc(-c2c(C(F)F)ccc(Cl)c2F)n1` (single isomer, unassigned) [Example 36, (S or R)-N-(1-(1-(2-(azetidin-1-yl)pyrimidin-5-yl)-2,2-difluoroethyl)-1H-pyrazol-4-yl)-6-(3-chloro-6-(difluoromethyl)-2-fluorophenyl)pyrazine-2-carboxamide] are 44.3 nM and 4430 nM.
The corresponding values for `CC(c1ccc(N2CCC2)nc1)n1cc(NC(=O)c2cncc(-c3c(C(F)F)ccc(Cl)c3F)n2)cn1` (single isomer, unassigned) [Example 37, (S or R)-N-(1-(1-(6-(azetidin-1-yl)pyridin-3-yl)ethyl)-1H-pyrazol-4-yl)-6-(3-chloro-6-(difluoromethyl)-2-fluorophenyl)pyrazine-2-carboxamide] are 25.6 nM and 2700 nM.
For `CC(c1ccc(N2CCC2)nc1)n1cc(NC(=O)c2cncc(-c3c(C(F)F)ccc(Cl)c3F)n2)cn1` (single isomer, unassigned) [Example 38, (R or S)-N-(1-(1-(6-(azetidin-1-yl)pyridin-3-yl)ethyl)-1H-pyrazol-4-yl)-6-(3-chloro-6-(difluoromethyl)-2-fluorophenyl)pyrazine-2-carboxamide] the same measures were 5 nM and 2580 nM.
In the case of `Cc1nc(C(C)n2cc(NC(=O)c3cncc(-c4c(C(F)F)ccc(Cl)c4F)n3)cn2)cnc1N1CCC1` (single isomer, unassigned) [Example 39, (S or R)-N-(1-(1-(5-(azetidin-1-yl)-6-methylpyrazin-2-yl)ethyl)-1H-pyrazol-4-yl)-6-(3-chloro-6-(difluoromethyl)-2-fluorophenyl)pyrazine-2-carboxamide], the values for the concentration for half-maximal inhibition (IC50) in experiment [1] and in experiment [2] were 1.3 nM and 478 nM, respectively.
As to `Cc1nc(C(C)n2cc(NC(=O)c3cncc(-c4c(C(F)F)ccc(Cl)c4F)n3)cn2)cnc1N1CCC1` (single isomer, unassigned) [Example 40, (R or S)-N-(1-(1-(5-(azetidin-1-yl)-6-methylpyrazin-2-yl)ethyl)-1H-pyrazol-4-yl)-6-(3-chloro-6-(difluoromethyl)-2-fluorophenyl)pyrazine-2-carboxamide], the IC50 in experiment [1] is 3.7 nM; in experiment [2], 794 nM.
Regarding `Cc1nc(N2CCC2)cnc1C(C)n1cc(NC(=O)c2cncc(-c3c(C(F)F)ccc(Cl)c3F)n2)cn1` (single isomer, unassigned) [Example 41, (S or R)-N-(1-(1-(5-(azetidin-1-yl)-3-methylpyrazin-2-yl)ethyl)-1H-pyrazol-4-yl)-6-(3-chloro-6-(difluoromethyl)-2-fluorophenyl)pyrazine-2-carboxamide], the concentration for half-maximal inhibition (IC50) turned out to be 2.1 nM in experiment [1] and 4210 nM in experiment [2].
For `[2H]C(C)(c1cnc(N2CCC2)nc1)n1cc(NC(=O)c2cncc(-c3c(C(F)F)ccc(Cl)c3F)n2)cn1` (single isomer, unassigned) [Example 42, (S or R)-N-(1-(1-(2-(azetidin-1-yl)pyrimidin-5-yl)ethyl-1-d)-1H-pyrazol-4-yl)-6-(3-chloro-6-(difluoromethyl)-2-fluorophenyl)pyrazine-2-carboxamide] the same measures were 4.7 nM and 1110 nM.
Take `[2H]C(C)(c1cnc(N2CCC2)nc1)n1cc(NC(=O)c2cncc(-c3c(C(F)F)ccc(Cl)c3F)n2)cn1` (single isomer, unassigned) [Example 43, (R or S)-N-(1-(1-(2-(azetidin-1-yl)pyrimidin-5-yl)ethyl-1-d)-1H-pyrazol-4-yl)-6-(3-chloro-6-(difluoromethyl)-2-fluorophenyl)pyrazine-2-carboxamide]: the IC50 in experiment [1] turned out to be 19.5 nM; in experiment [2], 1170 nM.
For `O=C(Nc1cnn(C(CO)c2cnc(N3CC4CC4C3)nc2)c1)c1cncc(-c2c(C(F)F)ccc(Cl)c2F)n1` (single isomer, unassigned) [Example 44, N-(1-((S or R)-1-(2-(3-Azabicyclo[3.1.0]hexan-3-yl)pyrimidin-5-yl)-2-hydroxyethyl)-1H-pyrazol-4-yl)-6-(3-chloro-6-(difluoromethyl)-2-fluorophenyl)pyrazine-2-carboxamide] the same measures were 10.3 nM and 1460 nM.
